Data published in patent US10889591B2, “PDE9 inhibitor and use thereof” (Nanjing TransThera Biosciences Co. Ltd., priority 2017, dated 2021).
Like-named read-outs stand apart in the source and are kept apart here.

Assays:
PDE8A1 Enzyme = PDE8A1 Enzyme (Homo sapiens (Human), UniProt O60658); assay: PDE enzymology evaluation, PDE8A1; assay type: biochemical
Description: (§1) Experimental Example 5: PDE Enzymology Evaluation Method
(§2) Test substance: Compounds of the invention, prepared by the corresponding examples of the invention
(§3) 1. Experimental materials and instruments
PDE8A1 Enzyme (BPS, Cat. No. 60080)
(§4) 2. Experimental procedure
(§5) Preparation of the compounds: the compounds were prepared into 10 mM compound stock solution in DMSO for long-term storage. The obtained compound stock solution was diluted in 100 times with DMSO to obtain 100 μM compound working mother solution, and then the compound working mother solution was diluted in 3 times with DMSO to obtain 10 concentration gradients of diluted compound mother liquor (100×).
(§6) Incubation with the compounds: A very small amount of liquid pipetting system Echo was used to pipette the diluted compound mother liquor into a 384-well plate. 200 nL diluted compound mother liquor and 10 μL PDE1A1, PDE3A, PDE5A1 and PDE8A1 enzyme solution were added to each compound well. […] In the maximum reading hole (Max), the compound was replaced by solvent. In the minimum reading hole (Min), the compound and enzyme solution were replaced by solvent.
(§7) Detection: Fluorescence readings (F) at 480 nm/535 nm were detected using a microplate reader.
(§8) Calculation: The inhibition rate was calculated as follows, and IC50 was fitted using GraphPad Prism 5.0: […]

PDE1A1 Enzyme = PDE1A1 Enzyme (Homo sapiens (Human), UniProt P54750); assay: PDE enzymology evaluation, PDE1A1; assay type: biochemical
Sequence of PDE1A1 Enzyme (P54750 whole entry, change not shown): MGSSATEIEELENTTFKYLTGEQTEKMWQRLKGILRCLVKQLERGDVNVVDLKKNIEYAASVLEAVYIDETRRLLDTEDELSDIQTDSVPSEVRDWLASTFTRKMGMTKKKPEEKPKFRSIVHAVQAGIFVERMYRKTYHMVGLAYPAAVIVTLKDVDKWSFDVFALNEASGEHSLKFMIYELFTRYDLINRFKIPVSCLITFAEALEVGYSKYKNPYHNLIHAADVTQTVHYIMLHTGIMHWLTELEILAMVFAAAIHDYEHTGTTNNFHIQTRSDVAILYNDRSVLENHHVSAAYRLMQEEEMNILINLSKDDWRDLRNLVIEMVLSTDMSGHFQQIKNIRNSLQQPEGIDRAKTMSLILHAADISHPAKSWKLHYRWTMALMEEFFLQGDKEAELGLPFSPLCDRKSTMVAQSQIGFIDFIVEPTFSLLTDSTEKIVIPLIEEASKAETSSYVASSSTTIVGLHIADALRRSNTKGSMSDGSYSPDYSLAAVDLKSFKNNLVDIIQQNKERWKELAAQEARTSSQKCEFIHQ
Description: as §1, §2, §3
PDE1A1 Enzyme (BPS, Cat. No. 60010)
as §4, §5, §6, §7, §8

PDE5A1 Enzyme = PDE5A1 Enzyme (Homo sapiens (Human), UniProt O76074); assay: PDE enzymology evaluation, PDE5A1; assay type: biochemical
Description: as §1, §2, §3
PDE5A1 Enzyme (BPS, Cat. No. 60050)
as §4, §5, §6, §7, §8

PDE3A Enzyme = PDE3A Enzyme (Homo sapiens (Human), UniProt Q14432); assay: PDE enzymology evaluation, PDE3A; assay type: biochemical
Sequence of PDE3A Enzyme (Q14432 whole entry): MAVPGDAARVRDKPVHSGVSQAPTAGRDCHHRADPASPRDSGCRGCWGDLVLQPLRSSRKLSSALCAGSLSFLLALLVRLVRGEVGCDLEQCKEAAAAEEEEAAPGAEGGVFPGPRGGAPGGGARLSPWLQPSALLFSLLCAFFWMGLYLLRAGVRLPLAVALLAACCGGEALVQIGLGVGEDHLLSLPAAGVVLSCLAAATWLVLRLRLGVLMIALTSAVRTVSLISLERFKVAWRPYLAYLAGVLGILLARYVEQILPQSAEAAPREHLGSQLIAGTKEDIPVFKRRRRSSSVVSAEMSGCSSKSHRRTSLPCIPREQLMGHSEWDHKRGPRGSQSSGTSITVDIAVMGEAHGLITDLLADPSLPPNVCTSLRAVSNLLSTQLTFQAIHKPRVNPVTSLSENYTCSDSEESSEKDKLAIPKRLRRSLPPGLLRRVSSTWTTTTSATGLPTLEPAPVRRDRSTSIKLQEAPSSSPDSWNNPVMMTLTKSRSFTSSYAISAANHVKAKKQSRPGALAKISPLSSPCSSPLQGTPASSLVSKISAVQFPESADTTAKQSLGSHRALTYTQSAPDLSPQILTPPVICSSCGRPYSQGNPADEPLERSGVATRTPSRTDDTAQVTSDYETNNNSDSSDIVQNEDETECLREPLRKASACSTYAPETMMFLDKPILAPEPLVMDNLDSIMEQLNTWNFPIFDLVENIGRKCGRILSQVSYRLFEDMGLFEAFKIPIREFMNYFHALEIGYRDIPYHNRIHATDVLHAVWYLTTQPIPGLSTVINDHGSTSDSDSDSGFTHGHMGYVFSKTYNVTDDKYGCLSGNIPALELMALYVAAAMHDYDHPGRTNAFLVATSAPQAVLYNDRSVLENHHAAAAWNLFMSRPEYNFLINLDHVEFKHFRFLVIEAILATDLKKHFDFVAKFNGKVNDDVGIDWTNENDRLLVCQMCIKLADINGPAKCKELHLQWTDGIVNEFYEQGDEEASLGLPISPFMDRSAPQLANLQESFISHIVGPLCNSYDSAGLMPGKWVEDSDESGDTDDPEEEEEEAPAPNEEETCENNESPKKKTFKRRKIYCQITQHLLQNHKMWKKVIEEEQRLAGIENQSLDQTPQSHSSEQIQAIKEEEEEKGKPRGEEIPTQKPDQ
Description: as §1, §2, §3
PDE3A Enzyme (BPS, Cat. No. 60030)
as §4, §5, §6, §7, §8

[1] = Rat pharmacokinetic evaluation; assay type: in vivo, SD male rats; settings: male, Sprague-Dawley, plasma, SD rat; for Tmax / AUC(0-t) / half-life: po, intragastric 5 mg/kg; for Tmax: median; for AUC(0-t): read-out: AUClast po; for half-life: read-out: tz1/2 po (terminal elimination half-life) (converted); for bioavailability: dose iv/po 1/5 mg/kg, read-out: F % (absolute bioavailability)
Description: Experimental Example 4: Rat Pharmacokinetic Evaluation of the Compounds of the Invention
Aim: The in vivo pharmacokinetic parameters of the compounds in SD male rats (purchased from Beijing Vital River Animal Technology Co., Ltd.) were evaluated and bioavailability of the compounds was examined.
Animal Administration and Sample Collection:
The solution of compounds 65, 90, 107, 158 was intragastrically administered to SD rat at a dose of 5.0 mg/kg.
The experimental compound 76 was dissolved in 30% DMF+30% PEG400+40% saline to prepare a solution. The solution of compound 76 was intragastrically administered to SD rat at a dose of 5.0 mg/kg.
The experimental compound 76 was dissolved in 30% DMF+30% PEG400+40% saline to prepare a solution.
The experimental compounds 84 and 96 were dissolved in 5% DMSO+10% PEG400+85% (28% HP-β-CD) saline to prepare a solution. The solution of compounds 84 and 96 was intragastrically administered to SD rat at a dose of 5.0 mg/kg.
The experimental compounds 84 and 96 were dissolved in 5% DMSO+10% PEG400+85% (28% HP-β-CD) saline to prepare a solution.
The animals were fixed. The tail was heated with a water bath at 10 min before each time point. About 100 μL of blood from tail vein was collected, and then placed in an anti-coagulation tube containing EDTA-K2 after collection. Blood samples were centrifuged at 8000 rpm at 4° C. for 6 min to obtain plasma samples.
The concentration of test sample was output using Analyst 1.6.1 from AB SCIEX.

[2] = Canine pharmacokinetic evaluation; assay type: in vivo; settings: Beagle dogs
Source text: 1. Animal Administration and Sample Collection
2. Sample Analysis Method
3. Data Processing Method

in vitro = settings: human, microsomes
[3] = human; for CLint: microsomes
[4] = Rat pharmacokinetic evaluation; assay type: in vivo, SD male rats; settings: SD rat, intravenous bolus 1 mg/kg; for AUC(0-t) / clearance / half-life: male, Sprague-Dawley, plasma; for AUC(0-t): read-out: AUClast iv; for clearance: read-out: Cl_obs iv (clearance rate) (converted); for half-life: read-out: tz1/2 iv (terminal elimination half-life) (converted)
Human PDE9 [5] = target: T1, Human PDE9 (Homo sapiens (Human), UniProt O76083); settings: background statement, in words; cited from earlier work
T1 sequence (O76083 whole entry): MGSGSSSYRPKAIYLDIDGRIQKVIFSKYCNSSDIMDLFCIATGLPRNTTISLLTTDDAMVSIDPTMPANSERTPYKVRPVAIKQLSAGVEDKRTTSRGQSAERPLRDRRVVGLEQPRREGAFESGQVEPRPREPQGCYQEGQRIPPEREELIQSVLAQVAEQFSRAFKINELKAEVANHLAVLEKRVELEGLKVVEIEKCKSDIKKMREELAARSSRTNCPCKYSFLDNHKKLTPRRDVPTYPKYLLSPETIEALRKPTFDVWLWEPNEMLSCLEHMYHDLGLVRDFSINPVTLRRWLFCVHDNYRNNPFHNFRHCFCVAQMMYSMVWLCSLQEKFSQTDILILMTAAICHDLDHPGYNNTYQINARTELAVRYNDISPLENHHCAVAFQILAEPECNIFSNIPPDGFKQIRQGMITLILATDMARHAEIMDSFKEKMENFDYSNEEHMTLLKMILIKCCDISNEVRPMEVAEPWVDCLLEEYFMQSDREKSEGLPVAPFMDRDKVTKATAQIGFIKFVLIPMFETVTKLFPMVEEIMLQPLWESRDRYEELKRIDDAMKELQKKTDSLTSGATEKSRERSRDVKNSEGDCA

Human PDE9 [6] = target: T1, Human PDE9; settings: background statement; read-out: binding constant (Km) of PDE9; cited from earlier work

Sequence of PDE8A1 Enzyme (O60658 whole entry): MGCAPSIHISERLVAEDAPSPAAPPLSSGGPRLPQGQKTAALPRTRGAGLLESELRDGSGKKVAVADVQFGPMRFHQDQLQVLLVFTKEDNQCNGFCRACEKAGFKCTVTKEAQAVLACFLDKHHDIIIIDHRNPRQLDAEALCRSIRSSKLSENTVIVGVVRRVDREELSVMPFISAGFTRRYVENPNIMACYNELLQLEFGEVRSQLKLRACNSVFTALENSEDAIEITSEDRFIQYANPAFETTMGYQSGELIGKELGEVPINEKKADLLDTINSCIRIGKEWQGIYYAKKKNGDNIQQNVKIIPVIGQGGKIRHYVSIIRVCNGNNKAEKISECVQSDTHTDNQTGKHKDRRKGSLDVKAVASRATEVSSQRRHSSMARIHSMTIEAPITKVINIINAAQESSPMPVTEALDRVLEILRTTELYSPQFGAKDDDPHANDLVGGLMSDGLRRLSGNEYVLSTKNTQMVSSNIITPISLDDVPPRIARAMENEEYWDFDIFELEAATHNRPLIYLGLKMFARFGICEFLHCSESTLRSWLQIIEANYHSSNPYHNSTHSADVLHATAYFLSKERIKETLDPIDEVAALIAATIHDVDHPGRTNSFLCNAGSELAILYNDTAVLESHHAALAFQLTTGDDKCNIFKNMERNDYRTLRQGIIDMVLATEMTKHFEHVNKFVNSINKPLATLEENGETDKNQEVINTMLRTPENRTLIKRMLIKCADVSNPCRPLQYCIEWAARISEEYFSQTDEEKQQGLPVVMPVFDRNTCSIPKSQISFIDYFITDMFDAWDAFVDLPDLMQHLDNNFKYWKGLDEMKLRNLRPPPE

Compound: N#Cc1c(N2CCC3(CC2)COC3)c2ccncc2[nH]c1=O [Compound 24, 2-oxo-4-(2-oxa-7-azaspiro[3.5]nonane-7-yl)-1,2-dihydro-1,7-naphthyridin-3-carbonitrile]
- IC50 (PDE8A1 Enzyme): > 10000 nM
- IC50 (PDE1A1 Enzyme): 4920 nM
- IC50 (PDE5A1 Enzyme): > 10000 nM
- IC50 (PDE3A Enzyme): > 10000 nM

Compound: N#Cc1c(N2CCC3(CC2)CC3)c2ccncc2[nH]c1=O [Compound 25, 2-oxo-4-(6-azaspiro[2.5]octane-6-yl)-1,2-dihydro-1,7-naphthyridin-3-carbonitrile]
- Tmax [1]: 1 h
- AUC(0-t) [1]: 2050 ng·h/mL
- half-life [1]: 1.4 h
- bioavailability [1]: 74.2%
- IC50 (PDE8A1 Enzyme): > 3000 nM
- Vz_obs iv (apparent distribution volume) ([2]; intravenous bolus 1 mg/kg, n = 3): 7.06 L/kg
- Tmax ([2]; dog, plasma, po, intragastric 2 mg/kg, n = 3, median): 0.5 h
- AUC(0-inf) ([2]; dog, plasma, po, intragastric 2 mg/kg, n = 3, read-out: AUCinf po): 4450 ng·h/mL
- half-life ([2]; dog, plasma, po, intragastric 2 mg/kg, n = 3, read-out: tz1/2 po (terminal elimination half-life) (converted)): 9.45 h
- bioavailability ([2]; dog, plasma, dose iv/po 1/2 mg/kg, n = 3): 99.1%
- AUC(0-inf) ([2]; dog, plasma, intravenous bolus 1 mg/kg, n = 3, read-out: AUCinf iv): 2240 ng·h/mL
- clearance ([2]; dog, plasma, intravenous bolus 1 mg/kg, n = 3, read-out: Cl_obs iv (clearance rate) (converted)): 7.83 mL/min/kg
- half-life ([2]; dog, plasma, intravenous bolus 1 mg/kg, n = 3, read-out: tz1/2 iv (terminal elimination half-life) (converted)): 10.4 h
- IC50 (PDE1A1 Enzyme): > 3000 nM
- IC50 (PDE5A1 Enzyme): > 3000 nM
- half-life (in vitro): 5.25 h
- Original drug residual % at 60 min [3]: 87.5%
- k [3]: 0.0022 min⁻¹
- CLint [3]: 0.0044 mL · min^−1 · mg^−1 proteins
- IC50 (PDE3A Enzyme): > 3000 nM
- Vz_obs iv (apparent distribution volume) [4]: 1.27 L/kg
- AUC(0-t) [4]: 574 ng·h/mL
- clearance [4]: 29.3 mL/min/kg
- half-life [4]: 0.51 h

Compound: CCc1cc2c(N3CCC4(CC3)CC4)c(C#N)c(=O)[nH]c2cn1 [Compound 76, 6-ethyl-2-oxo-4-(6-azaspiro[2.5]octane-6-yl)-1,2-dihydro-1,7-naphthyridin-3-carbonitrile]
- Tmax [1]: 1 h
- AUC(0-t) [1]: 5750 ng·h/mL
- half-life [1]: 9.6 h
- bioavailability [1]: 113%
- half-life (in vitro): 7.7 h
- Original drug residual % at 60 min [3]: 87.3%
- k [3]: 0.0015 min⁻¹
- CLint [3]: 0.0030 mL · min^−1 · mg^−1 proteins
- Vz_obs iv (apparent distribution volume) [4]: 1.25 L/kg
- AUC(0-t) [4]: 1010 ng·h/mL
- clearance [4]: 17.3 mL/min/kg
- half-life [4]: 0.89 h

Compound: N#Cc1c(N2CCC3(CC2)CC3)c2cc(C(O)C3CC3)ncc2[nH]c1=O (centres unmarked) [Compound 90, 6-(cyclopropyl (hydroxy)methyl)-2-oxo-4-(6-azaspiro[2.5]octane-6-yl)-1,2-dihydro-1,7-naphthyridin-3-carbonitrile]
- Tmax [1]: 1 h
- AUC(0-t) [1]: 3700 ng·h/mL
- half-life [1]: 4.49 h
- bioavailability [1]: 47.4%
- half-life (in vitro): 3.12 h
- Original drug residual % at 60 min [3]: 80.5%
- k [3]: 0.0037 min⁻¹
- CLint [3]: 0.0074 mL · min^−1 · mg^−1 proteins
- Vz_obs iv (apparent distribution volume) [4]: 1.38 L/kg
- AUC(0-t) [4]: 1590 ng·h/mL
- clearance [4]: 10.5 mL/min/kg
- half-life [4]: 1.48 h

Compound: CC(C)Cn1c(=O)n(C)c(=O)c2[nH]cnc21 [IBMX]
- inhibition activity on PDE9 (Human PDE9 [5]): no or very low inhibition activity

Compound: CC(=O)Nc1ccc(-c2c[nH]c(=O)cn2)cc1 [SKF94120]
- inhibition activity on PDE9 (Human PDE9 [5]): no or very low inhibition activity

Compound: Nc1ncnc2c1ncn2[C@@H]1O[C@@H]2COP(=O)(O)O[C@H]2[C@H]1O [cAMP, cyclic adenosine monophosphate]
- Km (Human PDE9 [6]): 230 µM

Compound: Nc1nc2c(ncn2[C@@H]2O[C@@H]3COP(=O)(O)O[C@H]3[C@H]2O)c(=O)[nH]1 [cGMP, cyclic guanosine monophosphate]
- Km (Human PDE9 [6]): 0.17 µM

Compound: OCCN(CCO)c1nc(N2CCCCC2)c2nc(N(CCO)CCO)nc(N3CCCCC3)c2n1 [dipyridamole]
- inhibition activity on PDE9 (Human PDE9 [5]): no or very low inhibition activity

Compound: COc1ccc(C2CNC(=O)C2)cc1OC1CCCC1 (centres unmarked) [rolipram]
- inhibition activity on PDE9 (Human PDE9 [5]): no or very low inhibition activity

Compound: CCOC(=O)C1=C[C@]2(CC)CCCN3CCc4c(n1c1ccccc41)[C@@H]32 [vinpocetine]
- inhibition activity on PDE9 (Human PDE9 [5]): no or very low inhibition activity
